Values after ≈ are worked out from the molar mass of the structure shown. Active and inactive are the calls of the source. The rule behind the calls is not given here.
Experiments:
[1] = biological target: T1, Lysine-specific demethylase 4A (Homo sapiens, UniProt O75164); assay: Inhibition of recombinant human JMJD2A using biotinylated histone H3 as substrate by AlphaScreen assay
T1 sequence (O75164 whole entry): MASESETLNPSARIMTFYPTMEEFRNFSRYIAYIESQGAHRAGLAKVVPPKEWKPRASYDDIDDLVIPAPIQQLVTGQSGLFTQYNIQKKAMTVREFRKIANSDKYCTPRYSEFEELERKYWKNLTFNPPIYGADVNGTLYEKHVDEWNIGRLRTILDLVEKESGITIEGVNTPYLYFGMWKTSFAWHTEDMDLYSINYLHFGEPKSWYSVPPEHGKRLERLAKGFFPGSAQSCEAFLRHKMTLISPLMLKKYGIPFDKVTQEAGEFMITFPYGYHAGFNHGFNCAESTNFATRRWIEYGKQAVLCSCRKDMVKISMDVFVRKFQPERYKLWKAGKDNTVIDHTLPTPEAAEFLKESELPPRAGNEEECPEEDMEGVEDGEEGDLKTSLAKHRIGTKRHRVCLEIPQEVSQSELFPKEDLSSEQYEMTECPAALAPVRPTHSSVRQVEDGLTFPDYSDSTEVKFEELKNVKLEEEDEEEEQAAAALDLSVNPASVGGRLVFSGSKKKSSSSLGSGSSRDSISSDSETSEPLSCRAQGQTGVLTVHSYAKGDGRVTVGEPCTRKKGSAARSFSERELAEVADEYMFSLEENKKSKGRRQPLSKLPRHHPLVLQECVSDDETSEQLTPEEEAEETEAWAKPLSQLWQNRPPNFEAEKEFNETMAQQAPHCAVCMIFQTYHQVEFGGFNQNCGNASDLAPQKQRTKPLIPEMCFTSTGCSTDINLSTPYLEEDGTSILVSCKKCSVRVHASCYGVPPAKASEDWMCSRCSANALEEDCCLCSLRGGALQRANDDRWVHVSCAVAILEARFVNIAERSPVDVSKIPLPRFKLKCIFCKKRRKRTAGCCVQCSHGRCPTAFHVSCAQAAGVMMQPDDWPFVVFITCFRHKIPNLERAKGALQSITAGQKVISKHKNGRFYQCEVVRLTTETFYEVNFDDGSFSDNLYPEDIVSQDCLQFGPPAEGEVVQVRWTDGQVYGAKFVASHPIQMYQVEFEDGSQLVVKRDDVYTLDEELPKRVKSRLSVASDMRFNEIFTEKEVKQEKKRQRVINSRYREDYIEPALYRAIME

[2] = tested on: HCT-116; assay: Cytotoxicity against human HCT116 cells assessed as cell viability after 48 hrs by MTT assay; format: functional, cell-based; details: HCT-116, 48 h
[3] = tested on: MCF7; assay: Cytotoxicity against human MCF7 cells assessed as cell viability after 48 hrs by MTT assay; format: functional, cell-based; details: MCF7, 48 h
[4] = biological target: Egl nine homolog 1 (Homo sapiens) (UniProt Q9GZT9); assay: Displacement of F-HIF1alpha from PHD2 (unknown origin) at 50 uM by fluorescence polarization assay relative to control
[5] = tested on: A549; assay: Cytotoxicity against human A549 cells assessed as cell viability after 48 hrs by MTT assay; format: functional, cell-based; details: A549, 48 h
[6] = Intrinsic aqueous solubility of the compound after 24 hrs by UV spectrophotometric analysis; format: physicochemical; details: read-out: Intrinsic_solubility
[7] = Partition co-efficient, log D of the compound at pH 7.4; format: physicochemical; details: buffer
[8] = Permeability of the compound at 10 mM after 4 hrs by PAMPA; format: physicochemical; details: read-out: permeability
[9] = biological target: T2, Lysine-specific demethylase 4A (Homo sapiens) (UniProt O75164); assay: Inhibition of JMJD2A in human HCT116 cells assessed as induction of H3K9me2 hypermethylation at 5 to 10 uM by Western blot analysis; format: cell-based; details: HCT-116
T2 sequence (whole entry): T1 sequence (O75164 whole entry)

[10] = biological target: T2, Lysine-specific demethylase 4A (Homo sapiens); assay: Inhibition of JMJD2A in human HCT116 cells assessed as induction of H3K9me3 hypermethylation at 5 to 10 uM by Western blot analysis; format: cell-based; details: HCT-116

Sequence of Egl nine homolog 1 (Homo sapiens) (Q9GZT9 2-426 limits assumed): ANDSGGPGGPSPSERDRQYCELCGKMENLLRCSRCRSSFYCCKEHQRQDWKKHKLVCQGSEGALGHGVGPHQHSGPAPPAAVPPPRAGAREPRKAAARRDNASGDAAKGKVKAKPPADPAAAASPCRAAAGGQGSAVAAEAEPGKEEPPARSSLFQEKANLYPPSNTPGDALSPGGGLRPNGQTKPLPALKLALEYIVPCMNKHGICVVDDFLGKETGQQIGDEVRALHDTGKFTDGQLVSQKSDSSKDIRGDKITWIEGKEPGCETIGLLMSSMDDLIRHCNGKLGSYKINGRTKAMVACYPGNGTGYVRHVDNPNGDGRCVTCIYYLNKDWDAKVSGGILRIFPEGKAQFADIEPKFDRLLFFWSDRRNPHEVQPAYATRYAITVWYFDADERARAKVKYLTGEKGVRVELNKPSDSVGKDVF

Row | SMILES | IC50 [1] [µM] | inhibition [4] [%] | solubility at 24 h [6] [µM] | logD [7] | Papp at 4 h, 10000 µM [8] [×10⁻⁶ cm/s] | inhibition [9] | inhibition [10] | IC50 [2] [µM] | IC50 [3] [µM] | IC50 [5] [µM]
1 | Cc1cccc(NC(=O)c2ccc3c(C(=O)O)ccc(O)c3n2)c1 | > 100 | – | – | – | – | – | – | – | – | –
2 | O=C(Nc1ccc(OC(F)(F)F)cc1)c1ccc2c(C(=O)O)ccc(O)c2n1 | > 100 | – | – | – | – | – | – | – | – | –
3 | O=C(Nc1ccc(F)cc1)c1ccc2c(C(=O)O)ccc(O)c2n1 | > 100 | – | – | – | – | – | – | – | – | –
4 | O=C(NCc1ccccc1)c1ccc2c(C(=O)O)ccc(O)c2n1 | > 100 | – | – | – | – | – | – | – | – | –
5 | O=C(O)c1ccc(O)c2ncccc12 | – | 66.3 | 1200 (≈ 227 µg/mL) | -1.9 | 2 | – | – | 28.1 | 66.4 | 48.2
6 | O=C(Nc1cccc2ccccc12)c1ccc2c(C(=O)O)ccc(O)c2n1 | > 100 | – | – | – | – | – | – | – | – | –
7 | O=C(Nc1ccccc1F)c1ccc2c(C(=O)O)ccc(O)c2n1 | > 100 | – | – | – | – | – | – | – | – | –
8 | Cc1ccc(NC(=O)c2ccc3c(C(=O)O)ccc(O)c3n2)cc1 | > 100 | – | – | – | – | – | – | – | – | –
9 | O=C(NC1CCCCC1)c1ccc2c(C(=O)O)ccc(O)c2n1 | > 100 | – | – | – | – | – | – | – | – | –
10 | COc1cccc(NC(=O)c2ccc3c(C(=O)O)ccc(O)c3n2)c1 | > 100 | – | – | – | – | – | – | – | – | –
11 | COc1ccc(NC(=O)c2ccc3c(C(=O)O)ccc(O)c3n2)cc1 | > 100 | – | – | – | – | – | – | – | – | –
12 | O=C(Nc1ccccc1)c1ccc2c(C(=O)O)ccc(O)c2n1 | > 100 | – | – | – | – | – | – | – | – | –
13 | Cc1ccccc1NC(=O)c1ccc2c(C(=O)O)ccc(O)c2n1 | > 100 | – | 700 (≈ 226 µg/mL) | 3 | 3.9 | – | – | 59.6 | > 100 | 94.6

Second part, led by results:

Row | IC50 [1] [µM] | inhibition [4] [%] | solubility at 24 h [6] [µM] | logD [7] | Papp at 4 h, 10000 µM [8] [×10⁻⁶ cm/s] | inhibition [9] | inhibition [10] | SMILES | IC50 [2] [µM] | IC50 [3] [µM] | IC50 [5] [µM]
14 | > 100 | – | – | – | – | – | – | CN(C)c1ccc(NC(=O)c2ccc3c(C(=O)O)ccc(O)c3n2)cc1 | – | – | –
15 | 5.1 | 9.1 | – | – | – | – | – | O=C(O)c1ccc(O)c2nc(C(=O)N3CCOCC3)ccc12 | > 100 | > 100 | > 100
16 | 1.6 | 18.7 | 4900 (≈ 1550 µg/mL) | 0.3 | 3.3 | – | – | CN1CCN(C(=O)c2ccc3c(C(=O)O)ccc(O)c3n2)CC1 | 94.9 | 95 | > 100
17 | 82 | – | – | – | – | – | – | O=C(NCCCN1CCOCC1)c1ccc2c(C(=O)O)ccc(O)c2n1 | > 100 | > 100 | > 100
18 | 6.2 | 23.5 | – | – | – | – | – | Cc1ccc(NC(=O)c2ccc3c(C(=O)O)ccc(O)c3n2)nc1 | 72.7 | > 100 | 22.2
19 | 3.7 | 17.6 | 3800 (≈ 989 µg/mL) | 0.4 | 3 | – | – | CN(C)C(=O)c1ccc2c(C(=O)O)ccc(O)c2n1 | > 100 | > 100 | > 100
20 | 1.8 | 23.9 | 3600 (≈ 1040 µg/mL) | 1.5 | 2.3 | – | – | CCN(CC)C(=O)c1ccc2c(C(=O)O)ccc(O)c2n1 | 11.1 | > 100 | > 100
21 | 19 | 25 | 1300 (≈ 453 µg/mL) | 2.7 | 6.7 | Active | Active | O=C(Nc1nc2ccccc2[nH]1)c1ccc2c(C(=O)O)ccc(O)c2n1 | 1.5 | 27.6 | 21.7
22 | 2.8 | 24 | 1200 (≈ 371 µg/mL) | 1.2 | 2.9 | – | – | O=C(Nc1ccccn1)c1ccc2c(C(=O)O)ccc(O)c2n1 | 67 | 43.4 | 72.2
23 | 24 | 20.6 | 900 (≈ 338 µg/mL) | 2.9 | 3.6 | – | – | O=C(NCCc1c[nH]c2ccccc12)c1ccc2c(C(=O)O)ccc(O)c2n1 | 68.3 | > 100 | > 100
